Drawing on ChEMBL document CHEMBL1152039, “PIPERIDINE CARBOXYLIC ACID DERIVATIVES AS SIALYL LEWIS X MIMETICS” (Bioorg Med Chem Lett, 1997), this text covers IC50, inhibition in vivo and Incidence for 5 compounds.

The subject of experiment [1] is HL-60. Kind of experiment: Tested for the inhibition of HL60 cell adhesion to recombinant E-selectin-IgG fusion protein measured by cell culture assay. The experiment is classed as functional, cell-based. The settings on record: Homo sapiens.
The test system of experiment [2] is HL-60. In words: Tested for the inhibition of HL60 cell adhesion to recombinant P-selectin-IgG fusion protein measured by cell culture assay. The experiment is classed as functional, cell-based. The settings on record: Homo sapiens.
The test system of experiment [3] is Rattus norvegicus. In words: Tested for the inhibition of leukocyte adhesion in rat mesenteric venules in vivo at a dose of 3 mg/kg measured by intravital microscopy. The experiment is classed as functional.
For experiment [4], the species on record is Oryctolagus cuniculus. Kind of experiment: Percent incidence of heart arrhythmia and Ventricular fibrillation in isolated rabbit hearts at a concentration of 1 uM. The experiment is classed as functional.
Experiment [5] has as its system Rattus norvegicus. In words: Tested for the inhibition of leukocyte adhesion in rat mesenteric venules in vivo at a dose of 10 mg/kg measured by intravital microscopy. The experiment is classed as functional.
Experiment [6] concerns Rattus norvegicus. Kind of experiment: Tested for the inhibition of leukocyte adhesion in rat mesenteric venules in vivo at a dose of 1 mg/kg measured by intravital microscopy. The experiment is classed as functional.
The species entered for experiment [7] is Oryctolagus cuniculus. Kind of experiment: Percent incidence of heart arrhythmia and Ventricular fibrillation in isolated rabbit hearts at a concentration of 3 uM. The experiment is classed as functional.

Regarding `O=C(O)C1CCN(C(=O)O[C@@H]2CCCC[C@H]2O[C@@H]2O[C@@H](CO)[C@H](O)[C@H](O)[C@H]2O)CC1`, the IC50 is 5 mM with HL-60 [1] and more than 10 mM with HL-60 [2]. This compound had an inhibition in vivo at 3 mg/kg in the experiment with Rattus norvegicus [3] of 38%.
With `CC1OC(OC2CCCCC2OC(=O)N2CCC(C(=O)O)CC2)C(O)C(O)C1O` (centres undefined), the IC50 with HL-60 [1] and in the experiment on HL-60 [2] was more than 5 mM in each case. The same compound displayed an Incidence in the experiment listed under Oryctolagus cuniculus [4] of 50%. Also, in the experiment with Rattus norvegicus [5], the inhibition in vivo at 10 mg/kg amounted to 81%. Besides, the inhibition in vivo at 1 mg/kg in the experiment on Rattus norvegicus [6] is 64%. In the experiment with Rattus norvegicus [3], this compound yielded an inhibition in vivo at 3 mg/kg of 69%.
Regarding `O=C(O)C1CCN(C(=O)O[C@@H]2CCCC[C@H]2O[C@H]2O[C@@H](CO)[C@@H](O)[C@H](O)[C@H]2O)CC1`, the concentration for half-maximal inhibition (IC50) in the experiment with HL-60 [1] and with HL-60 [2] was more than 10 mM each time. In the experiment with Rattus norvegicus [3], this compound gave an inhibition in vivo at 3 mg/kg of 56%.
With `CC1OC(OC2CCCCC2OC(=O)N2CCC(C(=O)O)(C(=O)O)CC2)C(O)C(O)C1O` (centres undefined), the IC50 in the experiment with HL-60 [1] came to 1.6 mM; with HL-60 [2] it was 7.5 mM. In addition, in the experiment filed under Oryctolagus cuniculus [4], the Incidence was 50%. This compound also gave an inhibition in vivo at 3 mg/kg with Rattus norvegicus [3] of 49%.
With `CC(=O)N[C@H]1[C@H]([C@@H](O)[C@@H](O)CO)O[C@@](O[C@@H]2[C@H](O)[C@H](O[C@H]3[C@H](O[C@@H]4O[C@@H](C)[C@@H](O)[C@H](O)[C@@H]4O)[C@H](NC(C)=O)C(O)O[C@H]3CO)O[C@@H](CO)[C@@H]2O)(C(=O)O)C[C@H]1O` (some centres undefined), the Incidence in the experiment listed under Oryctolagus cuniculus [7] amounted to 50%. Moreover, in the experiment with Rattus norvegicus [5], the inhibition in vivo at 10 mg/kg came to 63%. In the experiment on Rattus norvegicus [6], this compound showed an inhibition in vivo at 1 mg/kg of 57%.

Usually IC50 stands for the concentration that inhibits the measured activity by half. A word on the inhibition in vivo: it is how much of the control response was suppressed. A low value points to a weak effect.
